Read-outs that look alike come from different tables or passages of the source. Ends that are not written are not given here.
What was measured:
B-LCL cells [1] = system: B-LCL cells
Description: (§1) The cytotoxic activity of CTLs on target cells was measured by ^51Cr-release assay. The ^51Cr-labeled target cells (1×10^4 cells/100 μL in total) were cocultured with different numbers of effector cells (100 μL) in a round-bottom 96-well plate. After culturing at 37° C. for 3-5 hours, the plate was centrifuged to separate the supernatant (100 μL) which was subjected to the measurement of γ ray. Specific cytotoxicity (% specific lysis) was calculated as follows: % specific lysis=(cpm experimental release−cpm spontaneous release)/(cpm maximal release−cpm spontaneous release)×100
One week later, PBMCs were pulsed with the peptide of SEQ ID NO: 8, and used as stimulators in the stimulation. The stimulation was conducted every one week 3 times in total. After 3 times of stimulation, CD8-positive cells were enriched by negative selection method. Further, stimulation with the peptide of SEQ ID NO: 8 was conducted 2 times. […] Experiments were carried out in the same manner as above using a peptide of SEQ ID NO: 9 and a peptide of SEQ ID NO: 2.

B-LCL cells [2] = system: B-LCL cells; remark: listed apart in the source
Description: as §1

Description for JY cell line: (§2) After obtaining informed-consent, blood was collected from HLA-A*0201-positive healthy subjects and peripheral blood mononuclear cells (PBMCs) were isolated using Ficoll-Hypaque separation solution. HLA-A*0201-positive T2 cell lines incapable of presenting endogenous peptides to HLA due to deficit in TAP gene (J. Immunol. 150: 1763, 1993) were pulsed with the peptide of SEQ ID NO: 3 at 20 μM for 2 hours, then radiated (7500 cGy), and co-cultured with PBMCs at the cell number ratio of 1:1. As the culture solution, a complete medium composed of 45% AIM-V medium, 45% RPMI1640 medium, 10% inactivated human serum, 0.1 mM MEM non-essential amino acids, 100 ng/mL streptomycin, 100 IU/mL penicillin and 25 ng/mL 2-mercaptoethanol was used. Seven days later, the second-time stimulation was conducted in a similar manner, and thereto was added 25 IU/mL of IL-2 (Shionogi & Co., Ltd) on the next day. Stimulation was conducted five times in total, and effector cells obtained after 5 days from the last stimulation were used in the measurement of cytotoxicity.
(§3) The cytotoxic activity of CTLs on target cells was measured by ^51Cr-release assay. […] Specific cytotoxicity (% specific lysis) was calculated as follows: % specific lysis=(cpm experimental release−cpm spontaneous release)/(cpm maximal release−cpm spontaneous release)×100
Description for T2 cells: After obtaining informed-consent, blood was collected from HLA-A*0201-positive healthy subjects and peripheral blood mononuclear cells (PBMCs) were isolated using Ficoll-Hypaque separation solution. HLA-A*0201-positive T2 cell lines incapable of presenting endogenous peptides to HLA due to deficit in TAP gene (J. Immunol. 150: 1763, 1993) were pulsed with the peptide of SEQ ID NO: 3 at 20 μM for 2 hours, then radiated (7500 cGy), and co-cultured with PBMCs at the cell number ratio of 1:1. […]
as §3
The “spontaneous release” and the “maximal release” were measured in the supernatant obtained from the culture of target cells and that obtained from the culture of target cells treated with 1% Triton X-100 solution, respectively. […] The cytotoxic activity was measured using, as target cells, T2 cells pulsed with the same peptide as used in the stimulation or T2 cells not pulsed with the peptide.
Description for TF-1 cell line: as §2, §3

## VTFDGTPSY [SEQ ID NO: 8]
B-LCL cells [1]
  cytotoxic activity (% specific lysis) of CTLs induced by stimulation with the peptide: more potent cytotoxic activity on B-LCL cells pulsed with the peptide than on B-LCL cells not-pulsed with the peptide

## DLNALLPAV [SEQ ID NO: 3, Asp Leu Asn Ala Leu Leu Pro Ala Val]
TF-1 cell line
  cytotoxic activity of CTLs induced by stimulation with the peptide on TF-1 cells: killed TF-1 cells
T2 cells
  cytotoxic activity (% specific lysis) of CTLs induced by stimulation with the peptide: more potent cytotoxic activity on T2 cells pulsed with the peptide than on T2 cells not-pulsed with the peptide
JY cell line
  cytotoxic activity of CTLs induced by stimulation with the peptide on JY cells: not JY cells

## QGSLGEQQY [SEQ ID NO: 9]
B-LCL cells [1]
  cytotoxic activity (% specific lysis) of CTLs induced by stimulation with the peptide: more potent cytotoxic activity on B-LCL cells pulsed with the peptide than on B-LCL cells not-pulsed with the peptide

## DQLKRHQRR [SEQ ID NO: 2]
B-LCL cells [1]
  cytotoxic activity (% specific lysis) of CTLs induced by stimulation with the peptide: more potent cytotoxic activity on B-LCL cells pulsed with the peptide than on B-LCL cells not-pulsed with the peptide
B-LCL cells [2]
  cytotoxic activity (% specific lysis) of CTLs induced by stimulation with the peptide: more potent cytotoxic activity on B-LCL cells pulsed with the peptide than on B-LCL cells not-pulsed with the peptide

Reference: US8388975B2, “Cancer antigen peptides derived from WT1” (International Institute of Cancer Immunology, Inc., priority 2004, dated 2013)
